As a reminder, the Kd is the equilibrium constant for the complex coming apart.

The source of these data is patent US20250011368A1, “DLL3 TARGETING PEPTIDES AND CONSTRUCTS THEREOF” (MARIANA ONCOLOGY INC., priority 2023, published 2025).

Molecules are shown by their SMILES. Numbered stars: 1 amine (or outer) side, 2 acyl side, 3 side chain; on linkers, the order of the positions; unused ones are H or OH. Bridge positions count the residues as written; N and C are the ends. Square brackets hold non-standard residues; d marks the D form. Peptide text beside a SMILES is read from it. * marks the point of attachment. ξ: configuration not given here. DOTA = O=C(O)CN1CCN(CC(=O)O)CCN(CC(=O)*)CCN(CC(=O)O)CC1; Phe(4-CF3) = N[C@@H](Cc1ccc(C(F)(F)F)cc1)C(=O)O; Trp(5-F) = N[C@@H](Cc1c[nH]c2ccc(F)cc12)C(=O)O; Trp(7-Me) = Cc1cccc2c(C[C@H](N)C(=O)O)c[nH]c12; Trp(7-aza) = N[C@@H](Cc1c[nH]c2ncccc12)C(=O)O; X5 = O=C([C@H](CC1C=NC2N=CC=CC12)N[*:1])[*:2]; Pro(trans-4-F) = O=C(O)[C@@H]1C[C@@H](F)CN1; X6 = C[C@@H]1CN([*:1])[C@@H]1C(=O)[*:2]; Phe(4-F) = N[C@@H](Cc1ccc(F)cc1)C(=O)O; 1Nal = N[C@@H](Cc1cccc2ccccc12)C(=O)O; 2Nal = N[C@@H](Cc1ccc2ccccc2c1)C(=O)O; Nva(3-Et) = CCC(CC)[C@H](N)C(=O)O; Tle = CC(C)(C)[C@H](N)C(=O)O; Lauroyl = CCCCCCCCCCCC(=O)*; Octanoyl = CCCCCCCC(=O)*; Aze = O=C(O)[C@@H]1CCN1; Dab = NCC[C@H](N)C(=O)O; ξK = NCCCCC(N)C(=O)O

One test has as its target T1, human DLL3 (Homo sapiens, UniProt Q9NYJ7).
T1 sequence (Q9NYJ7 27-618): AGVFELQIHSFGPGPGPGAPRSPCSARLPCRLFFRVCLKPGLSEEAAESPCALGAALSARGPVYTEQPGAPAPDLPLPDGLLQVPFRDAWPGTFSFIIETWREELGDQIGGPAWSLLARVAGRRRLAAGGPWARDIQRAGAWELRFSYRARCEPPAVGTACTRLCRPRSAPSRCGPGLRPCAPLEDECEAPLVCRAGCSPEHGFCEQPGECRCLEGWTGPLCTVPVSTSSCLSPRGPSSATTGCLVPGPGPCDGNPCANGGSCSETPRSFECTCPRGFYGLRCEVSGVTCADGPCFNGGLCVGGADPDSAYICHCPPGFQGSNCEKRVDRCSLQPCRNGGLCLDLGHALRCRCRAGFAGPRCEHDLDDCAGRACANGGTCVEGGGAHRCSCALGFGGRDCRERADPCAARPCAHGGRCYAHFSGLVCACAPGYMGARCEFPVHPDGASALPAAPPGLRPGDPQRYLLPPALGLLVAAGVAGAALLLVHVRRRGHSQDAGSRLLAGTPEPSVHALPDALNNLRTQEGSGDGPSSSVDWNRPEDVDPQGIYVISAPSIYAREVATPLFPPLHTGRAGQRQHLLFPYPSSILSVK
The experiment in a line: Affinity determination by Surface Plasmon Resonance (SPR).
Settings: not given
Type of test: binding. Put shortly:
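Kinetic and affinity constants were derived by fitting sensorgrams to a 1:1 binding model. Graded compound concentrations flowed at 100 μL/minute in 20 mM phosphate running buffer with 2% DMSO over streptavidin-immobilized biotinylated human DLL3, reference-subtracted.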
For `CC[C@H](C)[C@H](NC(=O)[C@@H](NC(=O)[C@H](Cc1c[nH]c2ccccc12)NC(C)=O)[C@@H](C)O)C(=O)N[C@H]1CSSC[C@@H](C(=O)N[C@@H](Cc2c[nH]c3ccccc23)C(=O)N2CCC[C@H]2C(=O)N[C@H](CCCCNC(=O)COCCOCCOCCOCCOCCOCCOCCOCCNC(=O)[C@@H](CCCCNC(=O)CN2CCN(CC(=O)O)CCN(CC(=O)O)CCN(CC(=O)O)CC2)NC(=O)CCOCCOCCOCCOCCOCCOCCOCCOCCOCCOCCOCCOCCOCCOCCOCCOCCOCCOCCOCCOCCOCCOCCOCCOCCNC(=O)Cc2ccc(Br)cc2)C(N)=O)NC(=O)[C@H](CC(=O)O)NC(=O)[C@H](Cc2c[nH]cn2)NC(=O)[C@H](Cc2ccc3ccccc3c2)NC(=O)[C@H](CC(N)=O)NC(=O)[C@H](CC(N)=O)NC1=O` [compound 255, Ac-W-T-I-C(3)-N-N-(2Nal)-H-D-C(3)-W-P-{D-Lys[PEG8-D-Lys(DOTA)-PEG24-COCH2Ph-4Br]}-NH2], the dissociation constant Kd lay in the range of 1 to 10 nM.

Still in this test, the particulars now being: 25° C., biotinylated human DLL3 immobilized on streptavidin sensor chip, 1:1 binding model; read-out: SPR KD.
Consider `CC[C@H](C)[C@H](NC(=O)[C@@H](NC(=O)[C@H](Cc1c[nH]c2ccccc12)NC(C)=O)[C@@H](C)O)C(=O)N[C@H]1CSSC[C@@H](C(=O)N[C@@H](Cc2c[nH]c3ccccc23)C(=O)N2C[C@@H](C)[C@H]2C(=O)N[C@H](CCCCNC(=O)CN2CCN(CC(=O)O)CCN(CC(=O)O)CCN(CC(=O)O)CC2)C(N)=O)NC(=O)[C@H](CC(=O)O)NC(=O)[C@H](Cc2c[nH]cn2)NC(=O)[C@H](Cc2ccc3ccccc3c2)NC(=O)[C@H](CC(N)=O)NC(=O)[C@H](CC(N)=O)NC1=O` [compound 359, Ac-W-T-I-C(3)-N-N-(2Nal)-H-D-C(3)-W-R-3Me-Aze-[D-Lys(DOTA)]-NH2] (Ac-WTICNN[2Nal]HDCW[X6][dK](DOTA)-NH2; disulfide 4-10), for which the Kd is below 1 nM.

With `CC[C@H](C)[C@H](NC(=O)[C@@H](NC(=O)[C@H](Cc1c[nH]c2ccc(F)cc12)NC(C)=O)[C@@H](C)O)C(=O)N[C@H]1CSSC[C@@H](C(=O)N[C@@H](Cc2c[nH]c3ccccc23)C(=O)N2CCC[C@H]2C(=O)N[C@H](CCCCNC(=O)CN2CCN(CC(=O)O)CCN(CC(=O)O)CCN(CC(=O)O)CC2)C(N)=O)NC(=O)[C@H](CC(=O)O)NC(=O)[C@H](Cc2c[nH]cn2)NC(=O)[C@H](Cc2c[nH]c3ccccc23)NC(=O)[C@H](CC(N)=O)NC(=O)[C@H](CC(N)=O)NC1=O` [compound 100, Ac-(5Fluoro-W)-T-I-C(3)-N-N-W-H-D-C(3)-W-P-[D-Lys(DOTA)]-NH2] (Ac-[Trp(5-F)]TICNNWHDCWP[dK](DOTA)-NH2; disulfide 4-10), the dissociation constant (Kd) is below 1 nM.

Regarding `CC[C@H](C)[C@H](NC(=O)[C@@H](NC(=O)[C@H](Cc1c[nH]c2ccccc12)NC(C)=O)[C@@H](C)O)C(=O)N[C@H]1CSSC[C@@H](C(=O)N[C@@H](Cc2c[nH]c3ccccc23)C(=O)N2CCC[C@H]2C(=O)N[C@H](CCCCNC(=O)CN2CCN(CC(=O)O)CCN(CC(=O)O)CCN(CC(=O)O)CC2)C(N)=O)NC(=O)[C@H](CC(=O)O)NC(=O)[C@H](CCC(=O)O)NC(=O)[C@H](Cc2c[nH]c3ccccc23)NC(=O)[C@H](CCC(=O)O)NC(=O)[C@H](CCC(=O)O)NC1=O` [compound 275, Ac-W-T-I-C(3)-Glu-Glu-W-Glu-D-C(3)-W-P-[D-Lys(DOTA)]-NH2] (Ac-WTICEEWEDCWP[dK](DOTA)-NH2; disulfide 4-10), the Kd was in the range of 1 to 10 nM.

As to `CCC(CC)[C@H](NC(=O)[C@@H](NC(=O)[C@H](Cc1c[nH]c2ccc(F)cc12)NC(C)=O)[C@@H](C)O)C(=O)N[C@H]1CSSC[C@@H](C(=O)N[C@@H](Cc2c[nH]c3ncccc23)C(=O)N2CC[C@H]2C(=O)N[C@@H](CCCCNC(=O)CN2CCN(CC(=O)O)CCN(CC(=O)O)CCN(CC(=O)O)CC2)C(N)=O)NC(=O)[C@H](CC(=O)O)NC(=O)[C@H](Cc2c[nH]cn2)NC(=O)[C@H](Cc2cccc3ccccc23)NC(=O)[C@H](CC(N)=O)NC(=O)[C@H](CC(N)=O)NC1=O` [compound 241, Ac-(5Fluoro-W)-T-(Env)-C(3)-N-N-(1Nal)-H-D-C(3)-(7Aza-W)-(Aze)-[D-Lys(DOTA)]-NH2] (Ac-[Trp(5-F)]T[Nva(3-Et)]CNN[1Nal]HDC[Trp(7-aza)][Aze]K(DOTA)-NH2; disulfide 4-10), the Kd was 1 to 10 nM.

Take `CC[C@H](C)[C@H](NC(=O)[C@@H](NC(=O)[C@H](Cc1c[nH]c2ccccc12)NC(C)=O)[C@@H](C)O)C(=O)N[C@H]1CSSC[C@@H](C(=O)N[C@@H](Cc2c[nH]c3ccccc23)C(=O)N2CCC[C@H]2C(=O)N[C@H](CCCCNC(=O)CN2CCN(CC(=O)O)CCN(CC(=O)O)CCN(CC(=O)O)CC2)C(N)=O)NC(=O)[C@H](CC(=O)O)NC(=O)[C@H](Cc2cnc[nH]2)NC(=O)[C@H](Cc2c[nH]c3ccccc23)NC(=O)[C@H](CCC(=O)O)NC(=O)[C@H](CCC(=O)O)NC1=O` [compound 278, Ac-W-T-I-C(3)-Glu-Glu-W-H-D-C(3)-W-P-[D-Lys(DOTA)]-NH2] (Ac-WTICEEWHDCWP[dK](DOTA)-NH2; disulfide 4-10): the Kd was 1 to 10 nM.

Regarding `CCCCCCCC(=O)NCC[C@@H]1NC(=O)[C@H](Cc2c[nH]c3ccccc23)NC(=O)[C@H](CC(N)=O)NC(=O)[C@H](CC(N)=O)NC(=O)[C@@H](NC(=O)[C@@H](NC(=O)[C@@H](NC(=O)[C@H](Cc2c[nH]c3ccccc23)NC(C)=O)[C@@H](C)O)[C@@H](C)CC)CSSC[C@@H](C(=O)N[C@@H](Cc2c[nH]c3ccccc23)C(=O)N2CCC[C@H]2C(=O)N[C@H](CCCCNC(=O)CN2CCN(CC(=O)O)CCN(CC(=O)O)CCN(CC(=O)O)CC2)C(N)=O)NC(=O)[C@H](CC(=O)O)NC1=O` [compound 93, Ac-W-T-I-C(3)-N-N-W-(DAB-4-NHCOC7H15)-D-C(3)-W-P-[D-Lys(DOTA)]-NH2] (Ac-WTICNNW[Dab](Octanoyl)DCWP[dK](DOTA)-NH2; disulfide 4-10), the Kd lay in the range of 10 to 100 nM.

Consider `CCCCCCCCCCCC(=O)NCCCC[C@@H]1NC(=O)[C@H](Cc2ccc3ccccc3c2)NC(=O)[C@H](CC(N)=O)NC(=O)[C@H](CC(N)=O)NC(=O)[C@@H](NC(=O)[C@@H](NC(=O)[C@@H](NC(=O)[C@H](Cc2c[nH]c3c(C)cccc23)NC(C)=O)[C@@H](C)O)[C@@H](C)CC)CSSC[C@@H](C(=O)N[C@@H](Cc2c[nH]c3ccccc23)C(=O)N2CCC[C@H]2C(=O)N[C@H](CCCCNC(=O)CN2CCN(CC(=O)O)CCN(CC(=O)O)CCN(CC(=O)O)CC2)C(N)=O)NC(=O)[C@H](CC(=O)O)NC1=O` [compound 369, Ac-(7Me-W)-T-I-C(3)-N-N-(2Nal)-H-D-C(3)-W-P-[D-Lys(DOTA)]-NH2] (Ac-[Trp(7-Me)]TICNN[2Nal]K(Lauroyl)DCWP[dK](DOTA)-NH2; disulfide 4-10), for which the equilibrium dissociation constant (Kd) lay within 1 to 10 nM.

Turning to `CC(=O)N[C@@H](Cc1c[nH]c2ccc(F)cc12)C(=O)N[C@H](C(=O)N[C@H](C(=O)N[C@H]1CSSC[C@@H](C(=O)N[C@@H](CC2C=NC3N=CC=CC23)C(=O)N2C[C@H](F)C[C@H]2C(=O)N[C@H](CCCCNC(=O)CN2CCN(CC(=O)O)CCN(CC(=O)O)CCN(CC(=O)O)CC2)C(N)=O)NC(=O)[C@H](CC(=O)O)NC(=O)[C@H](Cc2cnc[nH]2)NC(=O)[C@H](Cc2ccc(C(F)(F)F)cc2)NC(=O)[C@H](CC(N)=O)NC(=O)[C@H](CC(N)=O)NC1=O)C(C)(C)C)[C@@H](C)O` (stereo partly drawn) [compound 145, Ac-(5Fluoro-W)-T-(Tbg)-C(3)-N-N-(4CF3-F)-H-D-C(3)-(7Aza-W)-(trans4Fluoro-P)-[D-Lys(DOTA)]-NH2] (Ac-[Trp(5-F)]T[Tle]CNN[Phe(4-CF3)]HDC[X5][Pro(trans-4-F)][dK](DOTA)-NH2; disulfide 4-10), the Kd fell in the range of 1 to 10 nM.

For `CC(=O)N[C@@H](Cc1c[nH]c2ccc(F)cc12)C(=O)N[C@H](C(=O)N[C@H](C(=O)N[C@H]1CSSC[C@@H](C(=O)N[C@@H](Cc2c[nH]c3ncccc23)C(=O)N2CC[C@H]2C(=O)NC(CCCCNC(=O)CN2CCN(CC(=O)O)CCN(CC(=O)O)CCN(CC(=O)O)CC2)C(N)=O)NC(=O)[C@H](CC(=O)O)NC(=O)[C@H](Cc2cnc[nH]2)NC(=O)[C@H](Cc2ccc(F)cc2)NC(=O)[C@H](CC(N)=O)NC(=O)[C@H](CC(N)=O)NC1=O)C(C)(C)C)[C@@H](C)O` (stereo partly drawn) [compound 121, Ac-(5Fluoro-W)-T-(Tbg)-C(3)-N-N-(4Fluoro-F)-H-D-C(3)-(7Aza-W)-(Aze)-[D-Lys(DOTA)]-NH2] (Ac-[Trp(5-F)]T[Tle]CNN[Phe(4-F)]HDC[Trp(7-aza)][Aze][ξK](DOTA)-NH2; disulfide 4-10), the Kd was in the range of 10 to 100 nM.

On to `CC(=O)N[C@@H](Cc1c[nH]c2ccc(F)cc12)C(=O)N[C@H](C(=O)N[C@H](C(=O)N[C@H]1CSSC[C@@H](C(=O)N[C@@H](Cc2c[nH]c3ncccc23)C(=O)N2CC[C@H]2C(=O)N[C@H](CCCCNC(=O)CN2CCN(CC(=O)O)CCN(CC(=O)O)CCN(CC(=O)O)CC2)C(N)=O)NC(=O)[C@H](CC(=O)O)NC(=O)[C@H](Cc2cnc[nH]2)NC(=O)[C@H](Cc2ccc(C(F)(F)F)cc2)NC(=O)[C@H](CC(N)=O)NC(=O)[C@H](CC(N)=O)NC1=O)C(C)(C)C)[C@@H](C)O` [compound 137, Ac-(5Fluoro-W)-T-(Tbg)-C(3)-N-N-(4CF3-F)-H-D-C(3)-(7Aza-W)-(Aze)-[D-Lys(DOTA)]-NH2] (Ac-[Trp(5-F)]T[Tle]CNN[Phe(4-CF3)]HDC[Trp(7-aza)][Aze][dK](DOTA)-NH2; disulfide 4-10), for which the Kd lay in the range of 1 to 10 nM.
